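These data come from cells grown in 96-well plates and exposed to compound for 48 hours at five concentrations. GI50 marks 50% less growth.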 Activity calls are given as the source filed them. No stated cut-off is given here; in the data, active = GI50 up to about 1.1 µM and inactive = higher.
Columns and labels:
Experiment in all cases: NCI tumour cell line growth inhibition, 48 h
K562 = tested on: K562
LOX IMVI = tested on: LOX IMVI
SR = tested on: SR
SNB-19 = tested on: SNB-19
PC-3 = tested on: PC-3
OVCAR-3 = tested on: OVCAR-3
HL-60 = tested on: HL-60
NCI-H460 = tested on: NCI-H460
HOP-92 = tested on: HOP-92
UACC-62 = tested on: UACC-62
SW-620 = tested on: SW-620
T47D = tested on: T47D
UO-31 = tested on: UO-31
HT-29 = tested on: HT-29
HCT-116 = tested on: HCT-116
MDA-N = tested on: MDA-N
SF-295 = tested on: SF-295
SK-MEL-28 = tested on: SK-MEL-28
RPMI-8226 = tested on: RPMI-8226
Malme-3M = tested on: Malme-3M
RXF 393 = tested on: RXF 393
DU-145 = tested on: DU-145
COLO 205 = tested on: COLO 205
HCC 2998 = tested on: HCC 2998
TK-10 = tested on: TK-10
M14 = tested on: M14
CAKI-1 = tested on: CAKI-1
NCI-H226 = tested on: NCI-H226
A549 = tested on: A549
ACHN = tested on: ACHN
CCRF-CEM = tested on: CCRF-CEM
MCF7 = tested on: MCF7
SK-MEL-2 = tested on: SK-MEL-2
UACC-257 = tested on: UACC-257
NCI-H23 = tested on: NCI-H23
SK-OV-3 = tested on: SK-OV-3
MDA-MB-435 = tested on: MDA-MB-435
SK-MEL-5 = tested on: SK-MEL-5
OVCAR-5 = tested on: OVCAR-5
IGROV-1 = tested on: IGROV-1
HOP-62 = tested on: HOP-62
SNB-75 = tested on: SNB-75
MOLT-4 = tested on: MOLT-4
NCI-H522 = tested on: NCI-H522
KM12 = tested on: KM12
BT-549 = tested on: BT-549
HCT-15 = tested on: HCT-15
SF-268 = tested on: SF-268
SN12C = tested on: SN12C
Hs-578T = tested on: Hs-578T
U-251 = tested on: U-251
786-0 = tested on: 786-0
OVCAR-8 = tested on: OVCAR-8
SF-539 = tested on: SF-539
A498 = tested on: A498
OVCAR-4 = tested on: OVCAR-4
EKVX = tested on: EKVX
NCI/ADR-RES = tested on: NCI/ADR-RES
MDA-MB-231 = tested on: MDA-MB-231

CCOC(=O)CCC(NC(=O)c1ccc(OCc2ccc3nc(OC)c(OC)nc3c2)cc1)C(=O)OCC (stereo unspecified)
GI50 (K562): 22.3 µM (inactive)
GI50 (LOX IMVI): 80 µM (inactive)
GI50 (SR): 45.1 µM (inactive)
GI50 (SNB-19): 74.3 µM (inactive)
GI50 (PC-3): 36.4 µM (inactive)
GI50 (OVCAR-3): 20.2 µM (inactive)
GI50 (HL-60): 31.7 µM (inactive)
GI50 (NCI-H460): 22.6 µM (inactive)
GI50 (HOP-92): 40.9 µM (inactive)
GI50 (UACC-62): 30.4 µM (inactive)
GI50 (SW-620): > 100 µM (inactive)
GI50 (T47D): 31.7 µM (inactive)
GI50 (UO-31): 64.6 µM (inactive)
GI50 (HT-29): > 100 µM (inactive)
GI50 (HCT-116): 50.7 µM (inactive)
GI50 (MDA-N): 24 µM (inactive)
GI50 (SF-295): 59.4 µM (inactive)
GI50 (SK-MEL-28): 44.6 µM (inactive)
GI50 (RPMI-8226): 70.8 µM (inactive)
GI50 (Malme-3M): 21.4 µM (inactive)
GI50 (RXF 393): 25.9 µM (inactive)
GI50 (DU-145): 69.5 µM (inactive)
GI50 (COLO 205): 16.7 µM (inactive)
GI50 (HCC 2998): 50.1 µM (inactive)
GI50 (TK-10): 35.2 µM (inactive)
GI50 (M14): 21.9 µM (inactive)
GI50 (CAKI-1): > 100 µM (inactive)
GI50 (NCI-H226): > 100 µM (inactive)
GI50 (A549): > 100 µM (inactive)
GI50 (ACHN): 32.9 µM (inactive)
GI50 (CCRF-CEM): 24 µM (inactive)
GI50 (MCF7): 35.1 µM (inactive)
GI50 (SK-MEL-2): 23.3 µM (inactive)
GI50 (UACC-257): 29.1 µM (inactive)
GI50 (NCI-H23): > 100 µM (inactive)
GI50 (SK-OV-3): > 100 µM (inactive)
GI50 (MDA-MB-435): 27.3 µM (inactive)
GI50 (SK-MEL-5): 38.4 µM (inactive)
GI50 (OVCAR-5): > 100 µM (inactive)
GI50 (IGROV-1): 55.8 µM (inactive)
GI50 (HOP-62): > 100 µM (inactive)
GI50 (SNB-75): 52.6 µM (inactive)
GI50 (MOLT-4): 22.7 µM (inactive)
GI50 (NCI-H522): 24.7 µM (inactive)
GI50 (KM12): > 100 µM (inactive)
GI50 (BT-549): 43.3 µM (inactive)
GI50 (HCT-15): 75.5 µM
GI50 (SF-268): 57.7 µM (inactive)
GI50 (SN12C): 45.3 µM (inactive)
GI50 (Hs-578T): 33.9 µM (inactive)
GI50 (U-251): > 100 µM (inactive)
GI50 (786-0): > 100 µM (inactive)
GI50 (OVCAR-8): > 100 µM (inactive)
GI50 (SF-539): 57.3 µM (inactive)
GI50 (A498): 71 µM (inactive)

O=C(NCc1cccc(C(F)(F)F)c1)c1cc2sccc2nc1C(F)(F)F
GI50 (K562): > 100 µM (inactive)
GI50 (SR): > 100 µM (inactive)
GI50 (SNB-19): 34.6 µM (inactive)
GI50 (PC-3): > 100 µM (inactive)
GI50 (OVCAR-3): 83.4 µM (inactive)
GI50 (OVCAR-4): 32.7 µM (inactive)
GI50 (HOP-92): 50.9 µM (inactive)
GI50 (UACC-62): > 100 µM (inactive)
GI50 (SW-620): > 100 µM (inactive)
GI50 (T47D): > 100 µM (inactive)
GI50 (UO-31): > 100 µM (inactive)
GI50 (EKVX): > 100 µM (inactive)
GI50 (HT-29): > 100 µM (inactive)
GI50 (HCT-116): > 100 µM (inactive)
GI50 (NCI/ADR-RES): > 100 µM (inactive)
GI50 (MDA-N): > 100 µM (inactive)
GI50 (SF-295): 46.7 µM (inactive)
GI50 (SK-MEL-28): > 100 µM (inactive)
GI50 (RPMI-8226): > 100 µM (inactive)
GI50 (Malme-3M): > 100 µM (inactive)
GI50 (RXF 393): 27.7 µM (inactive)
GI50 (COLO 205): > 100 µM (inactive)
GI50 (TK-10): 64 µM (inactive)
GI50 (M14): > 100 µM (inactive)
GI50 (CAKI-1): 62.1 µM (inactive)
GI50 (NCI-H226): 98.9 µM (inactive)
GI50 (A549): > 100 µM (inactive)
GI50 (ACHN): 38.7 µM (inactive)
GI50 (CCRF-CEM): > 100 µM (inactive)
GI50 (MDA-MB-231): 51.4 µM (inactive)
GI50 (MCF7): > 100 µM (inactive)
GI50 (SK-MEL-2): > 100 µM (inactive)
GI50 (UACC-257): > 100 µM (inactive)
GI50 (NCI-H23): > 100 µM (inactive)
GI50 (SK-OV-3): 81.5 µM (inactive)
GI50 (MDA-MB-435): > 100 µM (inactive)
GI50 (SK-MEL-5): 93.1 µM (inactive)
GI50 (OVCAR-5): > 100 µM (inactive)
GI50 (IGROV-1): > 100 µM (inactive)
GI50 (HOP-62): 33.8 µM (inactive)
GI50 (MOLT-4): 82.2 µM (inactive)
GI50 (NCI-H522): 62.7 µM (inactive)
GI50 (KM12): > 100 µM (inactive)
GI50 (BT-549): > 100 µM (inactive)
GI50 (SF-268): 64 µM (inactive)
GI50 (SN12C): 98.9 µM (inactive)
GI50 (Hs-578T): 26.9 µM (inactive)
GI50 (U-251): 27.4 µM (inactive)
GI50 (786-0): 25.5 µM (inactive)
GI50 (OVCAR-8): 88.7 µM (inactive)
GI50 (SF-539): 63.7 µM (inactive)

Source: ChEMBL document CHEMBL1201862, “PubChem BioAssay data set” (2004)
